The target of one experiment is T1, tau (Homo sapiens, UniProt P10636).
T1 construct: expressed in transfected cells; host or cells: E. coli BL21 (DE3) with pTARA (T7 RNA polymerase under pBAD) and pRKT42
Put plainly: In cellulo tau aggregation inhibition, Thioflavin S fluorescence in E. coli overexpressing tau. The experiment is classed as cell-based, Escherichia coli. The conditions noted are these: at 10 µM; mean of three experiments ± SEM. The source says: (§1) We screened multifunctional ligands from our in-house library for their anti-aggregating activity against Aβ and tau in the whole bacterial cells using the Thioflavin S (ThS) fluorescence assay. Bacterial cells overexpressing different proteins provide simple models that can be easily employed to monitor the mechanisms of protein aggregation related to a variety of conformational diseases[36]^,[37]. In our assay, E. coli system has been implemented to study the effect of potential Aβ42 and tau aggregation inhibitors within intact cells. The advantage of the test over in vitro tests is the fact that it considers the complexity of the cellular environment that plays a crucial role in tuning protein aggregation. This assay has been validated and successfully applied to assess the anti-aggregating properties of diverse chemical structures. Previously investigated tetrahydrobenzo[h][1,6] naphthyridine-6-chlorotacrine hybrid DP-128 was used as a reference compound[38]^,[39].
(§2) The assays were conducted according to the procedure described previously. All general chemicals were purchased from Sigma-Aldrich (St. Louis, MO) . Reagents for bacterial media were purchased from Conda (Sevilla, Spain). M9 minimal medium for 100 mL: 10 mL of salts 10× (0.68 g of Na2HPO4, 0.30 g of KH2PO4, 0.05 g of NaCl, 0.10 g of NH4Cl), 0.2 mL of 1 M MgSO4, 0.2 mL of 50 mM CaCl2, 2.5 mL of 20% glucose, and 87.1 mL of H2O.
(§3) E. coli competent cells BL21 (DE3) were transformed with the pET28a vector (Novagen, Inc., Madison, WI) carrying the DNA sequence of Aβ42 or with pTARA containing the RNA polymerase gene of T7 phage (T7RP) under the control of the promoter pBAD, then with pRKT42 vector encoding four repeats of tau protein in two inserts. For overnight culture preparation, 10 ml of M9 minimal medium containing 50 μg/mL of kanamycin (Aβ42) or 50 μg/mL of ampicillin and 12.5 μg/mL of chloramphenicol (tau) were inoculated with a colony of BL21 (DE3) bearing the plasmid Aβ42 or tau plasmids to be expressed at 37 °C and 180 rpm using an incubator shaker (Ovan, Barcelona, Spain). After overnight growth, the OD600 was usually 2 − 2.5. For expression of Aβ42 peptide/tau protein, 200 μL of overnight culture were transferred into Eppendorf tubes of 1.5 mL containing 790 μL of fresh M9 minimal medium with 50 μg/mL of kanamycin1 mM of isopropyl 1-thio-β-D-galactopyranoside (IPTG) (Aβ42) or 50 μg/mL of ampicillin, 12.5 μg/mL of chloramphenicol, 0.25% of arabinose (tau), and 25 μM of ThS and 10 μL of reference, tested compounds (1 mM in DMSO, final concentration: 10 μM) or DMSO. The samples were grown for 24 h at 37 °C and 180 rpm using an incubator shaker (Ovan). The samples with DMSO were prepared as a negative control (maximum level of Aβ42/tau, 0% of inhibition). In the positive controls, the M9 medium without IPTG (minimal level of Aβ42) or arabinose (minimal level of tau) was used. For absorbance and fluorescence determination, 200 μL of each Eppendorf tube was transferred in triplicate into 96-well plate. Finally, the fluorescence emission at 520 nm, when exciting at 440 nm and absorbance at 600 nm was recorded using the multi-mode microplate reader (Beckman Counter, Brea, CA). The absorbance at 600 nm (OD600) of these samples was assessed to check the bacterial growth and potential intrinsic toxicity of the tested compounds. Final data are the average of three independent experiments. DP-128 was used as a reference compound[38].

A further experiment concerns the target T2, Aβ42 (Homo sapiens, UniProt P05067).
T2 construct: expressed in transfected cells; host or cells: E. coli BL21 (DE3) with pET28a-Aβ42, IPTG-induced
Put plainly: In cellulo Aβ42 aggregation inhibition, Thioflavin S fluorescence in E. coli overexpressing Aβ42. The experiment is classed as cell-based, Escherichia coli. The conditions noted are these: at 10 µM; mean of three experiments ± SEM.
Description: as §1, §2, §3

The target of a further experiment is T3, human BACE1 (Homo sapiens, UniProt P56817).
T3 construct: purchased Panvera, Madison, WI (BACE1 FRET Assay Kit); host or cells: baculovirus-expressed
T3 sequence (P56817 46-501): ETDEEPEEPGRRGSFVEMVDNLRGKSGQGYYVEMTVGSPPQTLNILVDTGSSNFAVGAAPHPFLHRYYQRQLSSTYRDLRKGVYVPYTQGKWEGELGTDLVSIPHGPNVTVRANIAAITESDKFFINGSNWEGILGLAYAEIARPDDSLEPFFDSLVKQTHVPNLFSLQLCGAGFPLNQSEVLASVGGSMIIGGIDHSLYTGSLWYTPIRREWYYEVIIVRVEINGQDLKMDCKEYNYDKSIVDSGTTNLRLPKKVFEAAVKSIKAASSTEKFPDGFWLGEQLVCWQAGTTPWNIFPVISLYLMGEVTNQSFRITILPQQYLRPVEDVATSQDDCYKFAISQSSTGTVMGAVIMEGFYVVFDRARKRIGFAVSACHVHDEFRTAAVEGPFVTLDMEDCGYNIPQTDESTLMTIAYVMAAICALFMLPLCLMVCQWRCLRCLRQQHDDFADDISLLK
Put plainly: In vitro inhibition of human BACE1, FRET assay. In kind it is biochemical. The conditions noted are these: for hBACE1 % inhibition: at 10 µM per table footnote b, mean of three experiments ± SD; for BACE1 percentage of inhibition: screening concentration 50 µM; for IC50: mean of three experiments ± SEM, read-out: hBACE1 IC50. On the procedure: To further explore the multifunctional profile of the ligands, we screened them for their inhibitory activity against human BACE1 using spectrofluorometric assay (fluorescence resonance energy transfer (FRET)-based). […] Therefore, BACE1 inhibitors are now being tested in earlier stages of AD and in asymptomatic subjects at risk of AD, with the hope of blocking the disease process before it becomes irreversible.
BACE1 FRET Assay Kit (Panvera, Madison, WI) was performed according to the manufacturer’s protocol with small modifications. The Kit includes purified baculovirus-expressed BACE1 and specific peptide substrate (Rh-[…]-quencher), based on the “Swedish” mutant of APP. The analysis was carried, using 384-well black microplates and a microplate reader (EnSpire Multimode; PerkinElmer, Waltham, MA). The wavelength was optimised for the 553 nm excitation and 576 nm emission. Stock solutions of all test compounds were prepared in DMSO and further diluted with assay buffer (50 mM sodium acetate; pH 4.5). In the first step, 10 μL of BACE1 substrate was mixed with 10 μL of test compound (or assay buffer; i.e. blank sample), then 10 μL of the enzyme (1 U/mL) was added to start the reaction. After 60 min of incubation at 25 °C, 10 μL of stop solution (2.5 M sodium acetate) was applied to stop the reaction. The fluorescence signal was read at 576 nm. Percent of inhibition was calculated from [1 − (S60 − S0)/(C60 − C0)] × 100, where S0 and S60 are fluorescence intensities of the test sample (enzyme, substrate, test compound) at the beginning of the reaction and after 60 min, respectively, while C0 and C60 are analogical fluorescence intensities of the blank sample (enzyme, substrate, buffer). […] Each compound was analysed in triplicate. Commercially available BACE1 Inhibitor IV (Calbiochem, Merck; Nottingham, UK) was used as the reference compound. The IC50 values were calculated using nonlinear regression (GraphPad Prism 5 [GraphPad Software, San Diego, CA, 5.00]) by plotting the residual enzyme activities against the applied inhibitor concentration.

For orientation: IC50 means the concentration needed to halve the response being measured.

T1 sequence (P10636 other isoform, or with tags, fused parts or gaps): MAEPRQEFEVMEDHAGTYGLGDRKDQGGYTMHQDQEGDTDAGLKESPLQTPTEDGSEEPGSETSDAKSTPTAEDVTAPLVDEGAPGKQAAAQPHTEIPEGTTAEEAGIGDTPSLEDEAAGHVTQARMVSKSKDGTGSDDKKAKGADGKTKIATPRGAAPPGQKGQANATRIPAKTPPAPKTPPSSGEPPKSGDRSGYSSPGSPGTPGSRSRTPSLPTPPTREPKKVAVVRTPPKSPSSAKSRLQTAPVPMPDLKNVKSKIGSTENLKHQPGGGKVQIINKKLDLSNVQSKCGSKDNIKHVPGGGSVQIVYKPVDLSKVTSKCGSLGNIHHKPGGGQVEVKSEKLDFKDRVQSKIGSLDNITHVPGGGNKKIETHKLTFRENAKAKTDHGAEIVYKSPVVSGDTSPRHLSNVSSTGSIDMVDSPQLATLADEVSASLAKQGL
T2 sequence (P05067 672-713): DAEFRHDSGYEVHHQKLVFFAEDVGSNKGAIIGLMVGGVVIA

For the compound `Cc1c(OCc2ccccc2)cccc1N1CCN(CCCCCCCCNc2c3c(nc4ccccc24)CCCC3)CC1` [Compound 30], the “In cellulo tau inhibition %” value at tau is 60.2 ± 2.6%. Moreover, at Aβ42, the “In cellulo Aβ42 inhibition %” value came to 66.7 ± 5.1%. Also, on human BACE1, the hBACE1 % inhibition is 33.6% ± 11.1 and the “BACE1 percentage of inhibition” value amounted to 34%.
Regarding `Cc1c(OCc2ccccc2)cccc1N1CCN(CCCCCNCc2ccccc2)CC1` [Compound 33], the “In cellulo tau inhibition %” value at tau came out at 55.8 ± 5.3%. Also, the “In cellulo Aβ42 inhibition %” value on Aβ42 was determined as 29.0 ± 4.5%. In addition, on human BACE1, the hBACE1 % inhibition is 31.5% ± 1.1 and the “BACE1 percentage of inhibition” value is given as “about 30%”.
As to `O=S(=O)(c1ccccc1)n1ccc2c(N3CCN(CCCCCCCCNc4c5c(nc6ccccc46)CCCC5)CC3)cccc21` [Compound 5], the “In cellulo tau inhibition %” value at tau was 52.7 ± 5.7%. For the same compound, the “In cellulo Aβ42 inhibition %” value on Aβ42 worked out at 61.8 ± 4.1%. The IC50 at human BACE1 worked out at 2.29 ± 0.13 µM.
`c1ccc(Cn2ccc3c(N4CCN(CCCNc5c6c(nc7ccccc57)CCCC6)CC4)cccc32)cc1` [Compound 18]: the concentration for half-maximal inhibition (IC50) at human BACE1 amounted to 4.58 ± 0.21 µM.
Take `Cc1c(OCc2ccccc2)cccc1N1CCN(CCCCCCCNc2c3c(nc4ccccc24)CCCC3)CC1` [Compound 29]: the “In cellulo tau inhibition %” value at tau is given as 70.3 ± 3.9%. The “In cellulo Aβ42 inhibition %” value at Aβ42 was 67.4 ± 4.1%. The concentration for half-maximal inhibition (IC50) at human BACE1 worked out at 4.07 ± 0.27 µM.
With `Cc1c(OCc2ccccc2)cccc1N1CCN(CCCCCCNc2c3c(nc4ccccc24)CCCC3)CC1` [Compound 28], the “In cellulo tau inhibition %” value at tau is on record as 64.8 ± 2.2%. Further, the “In cellulo Aβ42 inhibition %” value at Aβ42 was determined as 64.2 ± 3.4%. At human BACE1, the hBACE1 % inhibition is reported as 67.4% ± 11.3 and the “BACE1 percentage of inhibition” value stood at 67%.
With `O=S(=O)(c1ccccc1)n1ccc2c(N3CCN(CCCNCc4ccccc4)CC3)cccc21` [Compound 7], at tau, the “In cellulo tau inhibition %” value is on record as 39.7 ± 3.8%. Besides, the “In cellulo Aβ42 inhibition %” value on Aβ42 is given as 48.3 ± 4.2%. For the same compound, the IC50 at human BACE1 was determined as 5.82 ± 0.34 µM.
In the same order, the values of `O=S(=O)(c1ccccc1)n1ccc2c(N3CCN(CCNc4c5c(nc6ccccc46)CCCC5)CC3)cccc21` [Compound 1] are 58.1 ± 4.8%, 40.7 ± 4.3% and 1.58 ± 0.15 µM.
With `O=S(=O)(c1ccccc1)n1ccc2c(N3CCN(CCCCCCCNc4c5c(nc6ccccc46)CCCC5)CC3)cccc21` [Compound 4], on tau, the “In cellulo tau inhibition %” value was determined as 46.4 ± 5.9%. Besides, the “In cellulo Aβ42 inhibition %” value at Aβ42 was determined as 58.8 ± 4.2%. Moreover, the IC50 at human BACE1 is 1.31 ± 0.06 µM.
As to `c1ccc(Cn2ccc3c(N4CCN(CCCCCCNc5c6c(nc7ccccc57)CCCC6)CC4)cccc32)cc1` [Compound 20], the “In cellulo tau inhibition %” value at tau is reported as 64.0 ± 5.1%. The “In cellulo Aβ42 inhibition %” value on Aβ42 came out at 66.9 ± 3.9%. Further, at human BACE1, the hBACE1 % inhibition is reported as 62.1% ± 5.8 and the “BACE1 percentage of inhibition” value was determined as 62%.
As to `c1ccc(CNCCCCN2CCN(c3cccc4c3ccn4Cc3ccccc3)CC2)cc1` [Compound 21], at tau, the “In cellulo tau inhibition %” value came to 41.3 ± 6.3%. In addition, the “In cellulo Aβ42 inhibition %” value at Aβ42 turned out to be 12.2 ± 4.1%. The IC50 on human BACE1 came to 21.9 ± 1.16 µM.
For the compound `Cc1c(OCc2ccccc2)cccc1N1CCN(CCCNCc2ccccc2)CC1` [Compound 31], the “In cellulo tau inhibition %” value on tau is 39.5 ± 8.3%. Moreover, the “In cellulo Aβ42 inhibition %” value on Aβ42 stood at 24.4 ± 3.4%. In addition, the hBACE1 % inhibition on human BACE1 is reported as 34.0% ± 11.4.
For the compound `O=S(=O)(c1ccccc1)n1ccc2c(N3CCN(CCCCNCc4ccccc4)CC3)cccc21` [Compound 8], the “In cellulo tau inhibition %” value at tau is 45.1 ± 5.1%. On Aβ42, the “In cellulo Aβ42 inhibition %” value is listed as 54.5 ± 3.8%. At human BACE1, the half-inhibitory concentration (IC50) was found to be 19.7 ± 1.54 µM.
Turning to `c1ccc(CNCCCCCN2CCN(c3cccc4c3ccn4Cc3ccccc3)CC2)cc1` [Compound 22], on tau, the “In cellulo tau inhibition %” value is 44.3 ± 6.5%. At Aβ42, the “In cellulo Aβ42 inhibition %” value was 25.2 ± 3.4%. Further, the hBACE1 % inhibition on human BACE1 is given as 63.9% ± 7.7.
Consider `c1ccc(CNCCCCCCN2CCN(c3cccc4c3ccn4Cc3ccccc3)CC2)cc1` [Compound 23], for which, at tau, the “In cellulo tau inhibition %” value is given as 28.4 ± 3.8%. Besides, the “In cellulo Aβ42 inhibition %” value at Aβ42 came to 16.4 ± 2.8%. Also, on human BACE1, the IC50 is 30.9 ± 1.58 µM.
Turning to `c1ccc(Cn2ccc3c(N4CCN(CCCCCNc5c6c(nc7ccccc57)CCCC6)CC4)cccc32)cc1` [Compound 19], on human BACE1, the IC50 was 7.23 ± 0.38 µM.
With `O=S(=O)(c1ccccc1)n1ccc2c(N3CCN(CCNCc4ccccc4)CC3)cccc21` [Compound 6], the “In cellulo tau inhibition %” value on tau was determined as 54.6 ± 6.2%. Moreover, the “In cellulo Aβ42 inhibition %” value at Aβ42 came out at 64.8 ± 3.4%. Besides, the hBACE1 % inhibition on human BACE1 was 67.4% ± 4.8.
On to `c1ccc(CNCCCCCCCN2CCN(c3cccc4c3ccn4Cc3ccccc3)CC2)cc1` [Compound 24], for which, at tau, the “In cellulo tau inhibition %” value is 55.6 ± 4.2%. Also, the “In cellulo Aβ42 inhibition %” value at Aβ42 worked out at 21.4 ± 3.4%. In addition, the IC50 on human BACE1 was 21.7 ± 1.57 µM.
Consider `O=S(=O)(c1ccccc1)n1ccc2c(N3CCN(CCCCCNc4c5c(nc6ccccc46)CCCC5)CC3)cccc21` [Compound 2], for which the IC50 at human BACE1 was 8.07 ± 0.15 µM.
Consider `O=S(=O)(c1ccccc1)n1ccc2c(N3CCN(CCCCCNCc4ccccc4)CC3)cccc21` [Compound 9], for which the “In cellulo tau inhibition %” value at tau came out at 44.8 ± 5.6%. Besides, at Aβ42, the “In cellulo Aβ42 inhibition %” value is 48.0 ± 4.0%. Also, the IC50 at human BACE1 was 23.4 ± 1.6 µM.
As for `Cc1c(OCc2ccccc2)cccc1N1CCN(CCCNc2c3c(nc4ccccc24)CCCC3)CC1` [Compound 27], the “In cellulo tau inhibition %” value on tau is 64.5 ± 4.1%. Further, the “In cellulo Aβ42 inhibition %” value on Aβ42 is reported as 64.9 ± 4.5%. In addition, the IC50 at human BACE1 worked out at 5.76 ± 0.28 µM.
Regarding `Cc1c(OCc2ccccc2)cccc1N1CCN(CCCCNCc2ccccc2)CC1` [Compound 32], the “In cellulo tau inhibition %” value on tau worked out at 42.5 ± 6.3%. For the same compound, the “In cellulo Aβ42 inhibition %” value at Aβ42 was 43.2 ± 5.4%. Also, on human BACE1, the hBACE1 % inhibition is listed as 42.8% ± 12.7 and the “BACE1 percentage of inhibition” value was found to be 42.8%.

These data come from publication PMC7594877, “Multidirectional in vitro and in cellulo studies as a tool for identification of multi-target-directed ligands aiming at symptoms and causes of Alzheimer’s disease” (Journal of Enzyme Inhibition and Medicinal Chemistry, 2020).
